Test results published in ChEMBL document CHEMBL1909046, “DrugMatrix in vitro pharmacology data”.

Key:
[1] = target: Beta-3 adrenergic receptor (Homo sapiens, UniProt P13945); test: DRUGMATRIX: Adrenergic beta3 radioligand binding (ligand: [125I] Cyanopindolol); format: cell membranes, HEK293, Membrane; settings: hek293; Not Active = under 50% inhibition at 10 µM
[2] = target: T1, Endothelin-1 receptor (Homo sapiens, UniProt P25101); format: cell membranes, Membrane; settings: cho-k1; also: in other assays of this panel Not Active means under 50% inhibition at 10 µM
T1 sequence (P25101 whole entry): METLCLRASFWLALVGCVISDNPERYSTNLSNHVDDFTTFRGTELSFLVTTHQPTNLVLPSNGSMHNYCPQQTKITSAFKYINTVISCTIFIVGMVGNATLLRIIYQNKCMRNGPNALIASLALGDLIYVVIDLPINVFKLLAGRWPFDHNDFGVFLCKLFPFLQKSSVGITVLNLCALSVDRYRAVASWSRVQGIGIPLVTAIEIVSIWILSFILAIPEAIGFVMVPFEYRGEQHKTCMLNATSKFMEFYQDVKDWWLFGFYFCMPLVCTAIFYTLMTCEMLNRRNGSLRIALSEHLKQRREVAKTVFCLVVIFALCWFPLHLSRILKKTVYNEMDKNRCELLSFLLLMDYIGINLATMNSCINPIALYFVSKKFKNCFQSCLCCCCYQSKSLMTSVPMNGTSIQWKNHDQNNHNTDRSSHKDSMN

[3] = DRUGMATRIX: GABAA, Flunitrazepam, Central radioligand binding (ligand: [3H] Flunitrazepam); format: cell membranes, Rattus norvegicus, Wistar, Brain, Membrane; settings: Not Active = under 50% inhibition at 10 µM
[4] = target: T2, Neutrophil elastase (Homo sapiens, UniProt P08246); format: tissue-based;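 also: inhibition of neutrophil elastase enzyme activity, measured with a p-nitroanilide-linked peptide substrate; in other assays of this panel Not Active means under 50% inhibition at 10 µM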
T2 sequence (P08246 whole entry): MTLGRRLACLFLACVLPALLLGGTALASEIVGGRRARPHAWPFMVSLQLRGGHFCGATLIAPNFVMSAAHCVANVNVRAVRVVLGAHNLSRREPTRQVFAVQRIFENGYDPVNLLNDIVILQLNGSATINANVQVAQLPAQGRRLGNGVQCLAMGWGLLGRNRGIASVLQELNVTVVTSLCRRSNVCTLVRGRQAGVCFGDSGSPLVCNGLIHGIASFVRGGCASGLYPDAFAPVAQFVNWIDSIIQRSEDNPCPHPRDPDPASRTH

[5] = target: T3, Glucocorticoid receptor (Homo sapiens, UniProt P04150); settings: hela s3; also: in other assays of this panel Not Active means under 50% inhibition at 10 µM
T3 sequence (P04150 whole entry): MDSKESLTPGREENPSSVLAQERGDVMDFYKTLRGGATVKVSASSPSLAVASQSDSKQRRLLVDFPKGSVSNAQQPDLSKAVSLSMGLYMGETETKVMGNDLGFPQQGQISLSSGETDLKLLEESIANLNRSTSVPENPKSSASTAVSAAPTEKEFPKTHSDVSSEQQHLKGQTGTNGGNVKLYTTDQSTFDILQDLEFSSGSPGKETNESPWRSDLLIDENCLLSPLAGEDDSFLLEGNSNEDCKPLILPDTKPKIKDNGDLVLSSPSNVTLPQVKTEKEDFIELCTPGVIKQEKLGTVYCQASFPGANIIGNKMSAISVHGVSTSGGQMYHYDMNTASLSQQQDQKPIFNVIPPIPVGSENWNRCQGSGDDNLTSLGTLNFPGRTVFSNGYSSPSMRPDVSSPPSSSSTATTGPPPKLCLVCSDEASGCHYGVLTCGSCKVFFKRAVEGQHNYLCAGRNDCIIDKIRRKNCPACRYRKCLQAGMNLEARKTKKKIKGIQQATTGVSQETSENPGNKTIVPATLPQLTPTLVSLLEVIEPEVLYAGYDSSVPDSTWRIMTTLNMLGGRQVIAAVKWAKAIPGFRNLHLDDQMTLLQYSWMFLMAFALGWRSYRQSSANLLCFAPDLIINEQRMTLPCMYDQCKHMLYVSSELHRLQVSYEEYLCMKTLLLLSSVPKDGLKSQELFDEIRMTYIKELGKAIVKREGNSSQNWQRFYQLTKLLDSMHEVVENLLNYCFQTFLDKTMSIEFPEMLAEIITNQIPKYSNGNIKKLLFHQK

[6] = target: Kappa-type opioid receptor (Homo sapiens, UniProt P41145); test: DRUGMATRIX: Opiate kappa (OP2, KOP) radioligand binding (ligand: [3H] Diprenorphine); format: cell membranes, HEK293, Membrane; settings: Not Active = under 50% inhibition at 10 µM
Sequence of Kappa-type opioid receptor (P41145 whole entry): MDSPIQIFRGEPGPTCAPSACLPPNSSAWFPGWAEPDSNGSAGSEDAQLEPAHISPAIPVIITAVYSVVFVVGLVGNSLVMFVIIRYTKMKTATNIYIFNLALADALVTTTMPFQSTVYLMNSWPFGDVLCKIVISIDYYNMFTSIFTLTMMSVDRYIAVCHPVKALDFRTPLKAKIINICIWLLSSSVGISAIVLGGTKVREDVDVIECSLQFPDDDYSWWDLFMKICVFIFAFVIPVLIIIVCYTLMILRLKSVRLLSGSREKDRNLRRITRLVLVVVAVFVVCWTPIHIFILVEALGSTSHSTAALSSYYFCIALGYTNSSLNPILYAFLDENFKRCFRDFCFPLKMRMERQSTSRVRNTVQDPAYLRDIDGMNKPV

Sequence of Beta-3 adrenergic receptor (P13945 whole entry): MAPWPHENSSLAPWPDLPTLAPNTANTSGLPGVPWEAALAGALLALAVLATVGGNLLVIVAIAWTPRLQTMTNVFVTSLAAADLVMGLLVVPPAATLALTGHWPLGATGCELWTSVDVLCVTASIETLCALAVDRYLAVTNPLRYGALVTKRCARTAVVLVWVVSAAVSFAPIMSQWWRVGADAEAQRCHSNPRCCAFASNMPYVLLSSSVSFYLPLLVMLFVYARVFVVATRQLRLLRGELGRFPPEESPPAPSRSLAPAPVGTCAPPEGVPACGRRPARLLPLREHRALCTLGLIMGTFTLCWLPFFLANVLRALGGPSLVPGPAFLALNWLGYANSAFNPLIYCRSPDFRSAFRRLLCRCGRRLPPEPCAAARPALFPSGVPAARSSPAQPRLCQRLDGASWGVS

Row | SMILES | IC50 [1] | IC50 [2] | IC50 [3] | Ki [3] | IC50 [4] | IC50 [5] | IC50 ([6]; hek293) | IC50 ([3]; read-out: IC50) | Ki ([3]; read-out: Ki) | Ki [6] | IC50 ([6]; read-out: IC50)
1 | O=C/C=C/c1ccccc1 | Not Active | Not Active | Not Active | Not Active | Not Active | Not Active | – | – | – | – | –
2 | COc1ccc(C(=O)N2CCCC2=O)cc1 | Not Active | Not Active | Not Active | Not Active | Not Active | Not Active | Not Active | – | – | – | –
3 | Cc1nnc2n1-c1ccc(Cl)cc1C(c1ccccc1)=NC2 [ALPRAZOLAM] | Not Active | Not Active | – | – | Not Active | Not Active | – | 16.6 nM | 13.5 nM | – | –
4 | Cn1c(=O)c2[nH]cnc2n(C)c1=O.Cn1c(=O)c2[nH]cnc2n(C)c1=O.NCCN [AMINOPHYLLINE] | Not Active | Not Active | Not Active | Not Active | Not Active | – | Not Active | – | – | – | –
5 | CCC1(CCC(C)C)C(=O)NC(=O)NC1=O [AMOBARBITAL] | Not Active | Not Active | Not Active | Not Active | Not Active | – | Not Active | – | – | – | –
6 | CC(=O)Oc1ccc(C(c2ccc(OC(C)=O)cc2)c2ccccn2)cc1 [BISACODYL] | Not Active | Not Active | Not Active | Not Active | Not Active | – | – | – | – | 975 nM | 2440 nM
7 | CN/C(=N\CCSCc1nc[nH]c1C)NC#N [CIMETIDINE] | Not Active | Not Active | Not Active | Not Active | Not Active | – | Not Active | – | – | – | –
8 | CCC(=O)O[C@]1(C(=O)CCl)[C@@H](C)C[C@H]2[C@@H]3CCC4=CC(=O)C=C[C@]4(C)[C@@]3(F)[C@@H](O)C[C@@]21C [CLOBETASOL PROPIONATE] | Not Active | Not Active | Not Active | Not Active | Not Active | – | Not Active | – | – | – | –
9 | C[C@@H]1C[C@H]2[C@@H]3CCC4=CC(=O)C=C[C@]4(C)[C@@]3(F)[C@@H](O)C[C@]2(C)[C@H]1C(=O)CO [DESOXIMETASONE] | Not Active | Not Active | Not Active | Not Active | Not Active | – | Not Active | – | – | – | –
10 | C[C@@H]1C[C@H]2[C@@H]3CCC4=CC(=O)C=C[C@]4(C)[C@@]3(F)[C@@H](O)C[C@]2(C)[C@@]1(O)C(=O)CO [DEXAMETHASONE] | Not Active | Not Active | Not Active | Not Active | Not Active | – | Not Active | – | – | – | –
11 | OC(CCCN1CCCCC1)(c1ccccc1)c1ccccc1 [DIPHENIDOL] | Not Active | Not Active | Not Active | Not Active | Not Active | – | Not Active | – | – | – | –
12 | C[C@@H](CO)NC(=O)[C@@H]1C=C2c3cccc4[nH]cc(c34)C[C@H]2N(C)C1 [ERGONOVINE] | Not Active | Not Active | Not Active | Not Active | Not Active | Not Active | – | – | – | – | –
13 | COc1cc([C@@H]2c3cc4c(cc3[C@@H](O[C@@H]3O[C@@H]5CO[C@@H](C)O[C@H]5[C@H](O)[C@H]3O)[C@H]3COC(=O)[C@H]23)OCO4)cc(OC)c1O [ETOPOSIDE] | Not Active | Not Active | Not Active | Not Active | Not Active | – | Not Active | – | – | – | –
14 | C=CCc1ccc(O)c(OC)c1 [EUGENOL] | Not Active | Not Active | Not Active | Not Active | Not Active | – | Not Active | – | – | – | –
